Test results as given in patent US20190151294A1, “TREATMENT OF ALCOHOLISM AND DEPRESSION AND/OR DYSPHORIC MOOD USING IBUDILAST” (MEDICINOVA, INC., priority 2016, published 2019).

Assays:
[1] = test system: alcohol-preferring (P) rats; experiment: Voluntary ethanol consumption in alcohol-preferring (P) rats; format: in vivo, rat; settings: for dose dependence of effect on ethanol intake (2-way mixed ANOVA): p<0.001
Method: To perform the study, adult male P and HAD1 rats were randomly assigned to receive one of the following four doses of ibudilast—0 mg/Kg, 3 mg/Kg, 6 mg/Kg, or 9 mg/Kg with eight rats assigned to each dose. Each dosing group was balanced to average a 2 h/day ethanol (15% v/v) intake. Water was concurrently available to the rats and Mazola corn oil was used as the vehicle.
The study was divided into four test phases. In the maintenance test phase rats in the treatment group were injected ibudilast subcutaneously (2 mL/kg s.c.), using standard solutions that deliver 3 mg/Kg, 6 mg/Kg or 9 mg/Kg of ibudilast, 60 min before each ethanol test session and the same dose of ibudilast was administered subcutaneously to the rats 8 hours later. Rats in the control group, however, are administered 2 mL/Kg Mazola corn oil subcutaneously. This protocol was carried out for 4 consecutive days. Following the maintenance test phase, is a two week no drug recovery phase during which rats are permitted access to ethanol and the amount of ethanol consumed by the rats was measured.
The recovery phase is followed by a two week forced ethanol abstinence phase. Following forced abstinence, the effects of ibudilast on ethanol drinking were examined by re-introducing ethanol to rats for a period of 5 consecutive days (i.e., the Relapse Test phase). Each animal received the same dose of ibudilast during maintenance and relapse test phases.

[2] = test system: non-treatment-seeking individuals with AUD; experiment: Phase 1b study: daily alcohol craving (AUQ); format: in vivo, human; settings: 50 mg BID; over the course of the study; p<0.05; FIG. 4
Method: Twenty four non-treatment-seeking individuals with AUD were treated with ibudilast (50 mg BID) and placebo (PBO). Participants completed two alcohol IV challenges, one after taking IBUD for 6 days and one after taking matched PBO for 6 days with a 5-10 day washout period between the study drug conditions. Ibudilast was obtained in the form of capsules containing a delayed-release 10 mg formulation. Matching capsules of the placebo also were obtained. Each participant visited the Clinical and Translational Research Center (CTRC) during on Days 1-5 of each medication condition during which they came in for daily morning visits with the study nurse to take the morning study medication under direct observation and took home the evening study medication. The participants stayed overnight on Day 6 and were discharged on Day 7. […]
(§1) The study comprised a treatment group and a placebo group and each participant completed a daily assessment questionnaire to address changes in mood, withdrawal effects, alcohol cravings, and address issues pertaining to other side effects. […] Following the intravenous alcohol challenge, participants were monitored for 24 hours and then discharged. Following a 5-10 day washout period study participants were readmitted to the CTRC where they received the opposite treatment (IBUD or PBO) for the second part of the study.

[3] = test system: non-treatment-seeking individuals with AUD; experiment: Phase 1b study: safety and tolerability; format: in vivo, human
Method: A Phase 1b laboratory study was conducted to determine the safety, tolerability, and initial efficacy of ibudilast (50 mg BID) in humans as a potential AUD therapeutic agent.
To address each of the above mentioned specific aims, a randomized, crossover, double-blind, placebo-controlled study was conducted to determine the safety, tolerability, and efficacy of ibudilast in individuals with current AUD. Participants were between the ages of 21 and 65 years; met the DSM-5 diagnostic criteria for AUD; reported drinking at least 48 standard drinks in a 30-day period, during the 90 days before enrollment; and were non-treatment seeking alcohol dependent individuals who consented to an inpatient stay at a medical facility for part of the study.
Twenty four non-treatment-seeking individuals with AUD were treated with ibudilast (50 mg BID) and placebo (PBO). Participants completed two alcohol IV challenges, one after taking IBUD for 6 days and one after taking matched PBO for 6 days with a 5-10 day washout period between the study drug conditions. Ibudilast was obtained in the form of capsules containing a delayed-release 10 mg formulation. Matching capsules of the placebo also were obtained. Each participant visited the Clinical and Translational Research Center (CTRC) during on Days 1-5 of each medication condition during which they came in for daily morning visits with the study nurse to take the morning study medication under direct observation and took home the evening study medication. The participants stayed overnight on Day 6 and were discharged on Day 7. During the daily visits to the CTRC, the study nurse collected vital signs, asked about side effects in an open-ended fashion and used the Systematic Assessment for Treatment Emergent Events (SAFTEE).
as §1, with “effects. Thus, non-treatment seeking alcohol dependent individuals were treated with ibudilast 50 mg (5×10 mg capsules) twice daily (BID) or placebo (PBO).” for “effects.”
(§2) Breath alcohol content (BrAC) was monitored every 3 to 5 minutes during infusion until target BrAC's of 0.02 g·dl, 0.04 g·dl, 0.06 g·dl, and 0.08 g·dl were obtained, following which infusion rates were reduced to half the original rate to maintain stable BrAC levels during the testing phase. The following parameters were assessed prior to intravenous alcohol challenge and again at each target BrAC: (1) Biphasic Alcohol Effects Scale (BAES) to obtain a reliable and valid measure of alcohol's stimulant and sedative effects; (2) Alcohol Urge Questionnaire (AUQ)—an 8-item scale where subjects rate their craving for alcohol at the present moment, which is appropriate for examining the level of the urge to drink alcohol; (3) Alcohol Ratings Scale, which captures “liking” and “wanting” of alcohol”; (4) The Profile of Mood States (POMS; McNair 1971) which was used to record positive and negative mood states; and (5) Heart Rate and Blood Pressure levels measure at baseline and at each target level of BrAC.

[4] = test system: non-treatment-seeking individuals with AUD; experiment: Phase 1b study: intravenous alcohol administration (IV-A) challenge, with post-hoc BDI analysis; format: in vivo, human; settings: for Response to Alcohol Challenge (alcohol-induced stimulation, positive affect, negative affect, liking, wanting): post-hoc, subjects with higher BDI scores at baseline, vs placebo and vs lower BDI subjects
Method: Infusion was performed by the study nurse under the supervision of the study physician using a 6% alcohol IV infusion. An alcohol infusion nomogram provides a formula for obtaining the rate of infusion based on the participant's gender and weight. Thus, male participants' were infused at a rate determined by the following formula: 0.166-ml/minute×weight in kilogram while the rate of infusion for female participants was calculated as 0.126-ml/minute×weight in kilograms.
as §2
To probe the possible relationship between MN-166, mood, and subjective responses to alcohol, further analysis was performed. The following variables were explored in all participants: • 1. Baseline scores for depressive symptomology (as measured by the Beck Depression Inventory (BDI)) were collected. • 2. Responses to Alcohol Challenge (e.g., alcohol-induced stimulation, positive affect, negative affect, “liking,” and “wanting”) were compared between subjects with higher BDI scores (more depressive symptomology) and dysphoria and subjects with lower BDI scores (less depressive symptomology) and dysphoria.

CC(C)C(=O)c1c(C(C)C)nn2ccccc12 [ibudilast, Ibudilast]
reduction of ethanol intake ([1]; 5-day Relapse Test phase): about 50%
ethanol drinking relative to controls ([1]; Relapse Test phase, 6 mg/Kg and 9 mg/Kg doses, p<0.05): significantly reducing ethanol drinking relative to controls
dose dependence of effect on ethanol intake (2-way mixed ANOVA) ([1]; Relapse Test phase): dose dependent reduction in ethanol intake
24-hour food intake ([1]; especially at the 9 mg/Kg dose, effect diminished over the 5-day test phase): transitory reductions
dose dependence of effect on ethanol intake (2-way mixed ANOVA) ([1]; maintenance test phase, 0, 3, 6, 9 mg/Kg): dose dependent reduction of ethanol intake
reduction of ethanol intake ([1]; maintenance test phase, 4 days, s.c. twice daily, vs vehicle): approximately 50%
time course of reduced ethanol intake (Dose x Day interaction) ([1]; p<0.001, data not shown): most robust on the first day
basal, daily alcohol craving (AUQ) [2]: significantly decreased
dose reductions during the course of the study ([3]; 50 mg BID): no dose reductions
drop-outs for adverse event-related reasons ([3]; 50 mg BID): No subjects dropped out
tolerability and safety ([3]; 50 mg BID oral (20 mg BID days 1-2), 6 days, humans with AUD): well tolerated and safe
heart rate or blood pressure in the context of alcohol consumption ([3]; 50 mg BID, IV alcohol, across the BrACs, p's>=0.35): did not affect
headache, reported adverse drug effect ([3]; 50 mg BID, vs 0 during placebo, p<0.05): 4 instances
subjective response to alcohol during the infusion ([4]; 50 mg BID, day 6 IV alcohol): did not affect
Response to Alcohol Challenge (alcohol-induced stimulation, positive affect, negative affect, liking, wanting) ([4]; listed as MN-166): less positive and more negative responses
Response to Alcohol Challenge (alcohol-induced stimulation, positive affect, negative affect, liking, wanting) ([4]; negative responses to alcohol): more negative
Response to Alcohol Challenge (alcohol-induced stimulation, positive affect, negative affect, liking, wanting) ([4]; positive responses to alcohol): less positive,
